In patent publication US11242337B2, “Compounds useful for treating gastrointestinal tract disorders” (Ardelyx, Inc., priority 2017, dated 2022):

Key:
NHE3 = target: T1, NHE3 (Homo sapiens, UniProt P48764); assay: Cell-based assay of NHE-3 activity (pre-incubation inhibition), human; conditions: human Preincubation; for IC50 / pIC50: 0-30 μM test compound
T1 construct: expressed in transfected cells
T1 sequence (P48764 26-834): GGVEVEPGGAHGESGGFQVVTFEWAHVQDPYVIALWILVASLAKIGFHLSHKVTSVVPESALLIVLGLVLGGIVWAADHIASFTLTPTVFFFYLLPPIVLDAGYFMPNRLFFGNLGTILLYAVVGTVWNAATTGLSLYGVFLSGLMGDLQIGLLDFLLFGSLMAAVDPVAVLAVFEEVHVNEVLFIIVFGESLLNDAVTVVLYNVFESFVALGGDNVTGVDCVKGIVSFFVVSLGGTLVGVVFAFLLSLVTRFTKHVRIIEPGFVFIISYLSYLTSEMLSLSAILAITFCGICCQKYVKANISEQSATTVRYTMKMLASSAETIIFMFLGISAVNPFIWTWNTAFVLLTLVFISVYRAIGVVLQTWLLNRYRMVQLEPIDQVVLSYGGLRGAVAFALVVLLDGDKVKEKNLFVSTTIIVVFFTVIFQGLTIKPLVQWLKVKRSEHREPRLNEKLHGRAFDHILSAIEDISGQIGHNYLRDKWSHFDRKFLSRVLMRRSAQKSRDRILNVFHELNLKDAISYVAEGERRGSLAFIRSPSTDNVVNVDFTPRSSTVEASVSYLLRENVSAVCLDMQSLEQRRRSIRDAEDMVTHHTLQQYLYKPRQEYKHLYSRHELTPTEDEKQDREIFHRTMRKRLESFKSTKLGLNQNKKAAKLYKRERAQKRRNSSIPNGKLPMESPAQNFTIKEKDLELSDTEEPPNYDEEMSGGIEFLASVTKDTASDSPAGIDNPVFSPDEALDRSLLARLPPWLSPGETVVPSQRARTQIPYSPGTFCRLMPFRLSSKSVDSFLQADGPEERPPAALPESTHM
T1 sequence (Q99653 2-195 partner limits assumed): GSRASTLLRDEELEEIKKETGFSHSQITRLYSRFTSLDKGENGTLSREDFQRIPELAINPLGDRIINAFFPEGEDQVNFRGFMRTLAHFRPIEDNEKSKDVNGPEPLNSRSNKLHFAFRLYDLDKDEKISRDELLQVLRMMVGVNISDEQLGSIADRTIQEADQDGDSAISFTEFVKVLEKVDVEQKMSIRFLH
How it was run: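 Activity read as initial rate of BCECF fluorescence ratio change per minute (ex 439/505, em 538 nm) following NH4Cl prepulse acid loading. Compound (0–30 μM) present during 10 min Na+-free acidification at room temperature; cells were PS120 fibroblasts stably co-expressing human NHE3 and NHERF2.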

[1] = tested on: human duodenum monolayer culture; assay: Sustained inhibition of apical acid secretion in human organoid monolayer cell cultures (duodenum); format: cell-based; conditions: Homo sapiens
How it was run: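 Duodenum organoid cells were plated on Transwells, differentiated with EGF/noggin/A83-01 from day 3, and dosed apically on day 6 with compound at 1 μM final (DMSO vehicle control), in duplicate wells, at 37° C, 5% CO2. Apical media pH was measured by electrode on day 8.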

O=C(NCCCCNC(=O)NCCOCCN1CC[C@@H](NS(=O)(=O)c2ccc(O[C@H]3c4cc(Cl)cc(Cl)c4C[C@@H]3N3CCNCC3)c(F)c2)C1)NCCOCCN1CC[C@@H](NS(=O)(=O)c2ccc(O[C@H]3c4cc(Cl)cc(Cl)c4C[C@@H]3N3CCNCC3)c(F)c2)C1 [Example 105, 4-([(1S,2S)-4,6-Dichloro-2-(piperazin-1-yl)-2,3-dihydro-1H-inden-1-yl]oxy)-N—[(R)-1-(20-[(R)-3-([4-([(1S2S)-4,6-dichloro-2-(piperazin-1-yl)-2,3-dihydro-1H-inden-1-yl]oxy)-3-fluorophenyl]sulfonamido)pyrrolidin-1-yl]-7,14-dioxo-3,18-dioxa-6,8,13,15-tetraazaicosyl)pyrrolidin-3-yl]-3-fluorobenzenesulfonamide; tetra(trifluoroacetate)]
% inhibition (NHE3): C (>70%)
IC50 (NHE3): < 0.1 µM
inhibition at 1 µM [1]: > 70%

O=C(NCCCCNC(=O)NCCOCCN1CC[C@H](NS(=O)(=O)c2ccc(O[C@H]3c4cc(Cl)cc(Cl)c4C[C@@H]3N3CCNCC3)c(F)c2)C1)NCCOCCN1CC[C@H](NS(=O)(=O)c2ccc(O[C@H]3c4cc(Cl)cc(Cl)c4C[C@@H]3N3CCNCC3)c(F)c2)C1 [Example 106, 4-([(1S,2S)-4,6-Dichloro-2-(piperazin-1-yl)-2,3-dihydro-1H-inden-1-yl]oxy)-N—[(S)-1-(20-[(S)-3-([4-([(1S,2S)-4,6-dichloro-2-(piperazin-1-yl)-2,3-dihydro-1H-inden-1-yl]oxy)-3-fluorophenyl]sulfonamido)pyrrolidin-1-yl]-7,14-dioxo-3,18-dioxa-6,8,13,15-tetraazaicosyl)pyrrolidin-3-yl]-3-fluorobenzenesulfonamide; tetra(trifluoroacetate)]
% inhibition (NHE3): C (>70%)
inhibition at 1 µM [1]: > 70%

N#Cc1cc(Cl)cc2c1C[C@H](N1CCNCC1)[C@H]2Oc1ccc(S(=O)(=O)N[C@H]2CCN(CCOCCNC(=O)NCCCCNC(=O)NCCOCCN3CC[C@H](NS(=O)(=O)c4ccc(O[C@H]5c6cc(Cl)cc(C#N)c6C[C@@H]5N5CCNCC5)cc4)C3)C2)cc1 [Example 107, 4-([(1S,2S)-6-Chloro-4-cyano-2-(piperazin-1-yl)-2,3-dihydro-1H-inden-1-yl]oxy)-N—[(S)-1-(20-[(S)-3-([4-([(1S,2S)-6-chloro-4-cyano-2-(piperazin-1-yl)-2,3-dihydro-1H-inden-1-yl]oxy)phenyl]sulfonamido)pyrrolidin-1-yl]-7,14-dioxo-3,18-dioxa-6,8,13,15-tetraazaicosyl)pyrrolidin-3-yl]benzenesulfonamide; tetra(trifluoroacetate)]
% inhibition (NHE3): C (>70%)
pIC50 (NHE3): C (NHE3 pIC50 > 7)
inhibition at 1 µM [1]: > 70%

N#Cc1cc(Cl)cc2c1C[C@H](N1CCNCC1)[C@H]2Oc1ccc(S(=O)(=O)N[C@@H]2CCN(CCOCCNC(=O)NCCCCNC(=O)NCCOCCN3CC[C@@H](NS(=O)(=O)c4ccc(O[C@H]5c6cc(Cl)cc(C#N)c6C[C@@H]5N5CCNCC5)c(F)c4)C3)C2)cc1F [Example 109, 4-([(1S,2S)-6-Chloro-4-cyano-2-(piperazin-1-yl)-2,3-dihydro-1H-inden-1-yl]oxy)-N—[(R)-1-(20-[(R)-3-[(4-([(1S,2S)-6-chloro-4-cyano-2-(piperazin-1-yl)-2,3-dihydro-1H-inden-1-yl]oxy)-3-fluorophenyl)sulfonamide)pyrrolidin-1-yl]-7,14-dioxo-3,18-dioxa-6,8,13,15-tetraazaicosyl)pyrrolidin-3-yl]-3-fluorobenzenesulfonamide; tetra(trifluoroacetate)]
% inhibition (NHE3): C (>70%)
pIC50 (NHE3): C (NHE3 pIC50 > 7)
inhibition at 1 µM [1]: > 70%

N#Cc1cc(Cl)cc2c1C[C@H](N1CCNCC1)[C@H]2Oc1ccc(S(=O)(=O)N[C@H]2CCN(CCOCCNC(=O)NCCCCNC(=O)NCCOCCN3CC[C@H](NS(=O)(=O)c4ccc(O[C@H]5c6cc(Cl)cc(C#N)c6C[C@@H]5N5CCNCC5)c(F)c4)C3)C2)cc1F [Example 110, 4-([(1S,2S)-6-Chloro-4-cyano-2-(piperazin-1-yl)-2,3-dihydro-1H-inden-1-yl]oxy)-N—[(S)-1-(20-[(S)-3-[(4-([(1S,2S)-6-chloro-4-cyano-2-(piperazin-1-yl)-2,3-dihydro-1H-inden-1-yl]oxy)-3-fluorophenyl)sulfonamide)pyrrolidin-1-yl]-7,14-dioxo-3,18-dioxa-6,8,13,15-tetraazaicosyl)pyrrolidin-3-yl]-3-fluorobenzenesulfonamide; tetra(trifluoroacetate)]
% inhibition (NHE3): C (>70%)
pIC50 (NHE3): C (NHE3 pIC50 > 7)
inhibition at 1 µM [1]: > 70%

N#Cc1cc(Cl)cc2c1C[C@H](N1CCNCC1)[C@H]2Oc1ccc(S(=O)(=O)NC2CCN(C(=O)CCCNC(=O)NCCCCNC(=O)NCCCC(=O)N3CCC(NS(=O)(=O)c4ccc(O[C@H]5c6cc(Cl)cc(C#N)c6C[C@@H]5N5CCNCC5)cc4)CC3)CC2)cc1 [Example 115]
% inhibition (NHE3): C (>70%)
pIC50 (NHE3): C (NHE3 pIC50 > 7)
inhibition at 1 µM [1]: > 70%

CN(C)[C@H]1CCCN([C@H]2Cc3c(C#N)cc(Cl)cc3[C@@H]2Oc2ccc(S(=O)(=O)NCCOCCOCCNC(=O)NCCCCNC(=O)NCCOCCOCCNS(=O)(=O)c3ccc(O[C@H]4c5cc(Cl)cc(C#N)c5C[C@@H]4N4CCC[C@H](N(C)C)C4)cc3)cc2)C1 [Example 122, 4-([(1S,2S)-6-Chloro-4-cyano-2-[(S)-3-(dimethylamino)piperidin-1-yl]-2,3-dihydro-1H-inden-1-yl]oxy)-N-[26-([4-([(1S,2S)-6-chloro-4-cyano-2-[(S)-3-(dimethylamino)piperidin-1-yl]-2,3-dihydro-1H-inden-1-yl]oxy)phenyl]sulfonamido)-10,17-dioxo-3,6,21,24-tetraoxa-9,11,16,18-tetraazahexacosyl]benzenesulfonamide]
% inhibition (NHE3): C (>70%)
pIC50 (NHE3): C (NHE3 pIC50 > 7)
inhibition at 1 µM [1]: > 70%

N#Cc1cc(Cl)cc2c1C[C@H](N1CCNCC1)[C@H]2Oc1ccc(S(=O)(=O)NC2CCN(CCOCCNC(=O)NCCCCNC(=O)NCCOCCN3CCC(NS(=O)(=O)c4ccc(O[C@H]5c6cc(Cl)cc(C#N)c6C[C@@H]5N5CCNCC5)cc4)CC3)CC2)cc1 [Example 123, 4-([(1S,2S)-6-Chloro-4-cyano-2-(piperazin-1-yl)-2,3-dihydro-1H-inden-1-yl]oxy)-N-[1-(20-[4-([4-([(1S,2S)-6-chloro-4-cyano-2-(piperazin-1-yl)-2,3-dihydro-1H-inden-1-yl]oxy)phenyl]sulfonamide]piperidin-1-yl)-7,14-dioxo-3,18-dioxa-6,8,13,15-tetraazaicosyl]piperidin-4-yl)benzenesulfonamide]
% inhibition (NHE3): C (>70%)
pIC50 (NHE3): C (NHE3 pIC50 > 7)
inhibition at 1 µM [1]: > 70%

N#Cc1cc(Cl)cc2c1C[C@H](N1CCCNCC1)[C@H]2Oc1ccc(S(=O)(=O)N[C@H]2CCN(CCOCCNC(=O)NCCCCNC(=O)NCCOCCN3CC[C@H](NS(=O)(=O)c4ccc(O[C@H]5c6cc(Cl)cc(C#N)c6C[C@@H]5N5CCCNCC5)cc4)C3)C2)cc1 [Example 126, 4-([(1S,2S)-6-Chloro-4-cyano-2-(1,4-diazepan-1-yl)-2,3-dihydro-1H-inden-1-yl]oxy)-N—[(S)-1-(20-[(S)-3-([4-([(1S,2S)-6-chloro-4-cyano-2-(1,4-diazepan-1-yl)-2,3-dihydro-1H-inden-1-yl]oxy)phenyl]sulfonamido)pyrrolidin-1-yl]-7,14-dioxo-3,18-dioxa-6,8,13,15-tetraazaicosyl)pyrrolidin-3-yl]benzenesulfonamide]
% inhibition (NHE3): C (>70%)
IC50 (NHE3): < 0.1 µM
inhibition at 1 µM [1]: < 50%
